Test results from PubChem BioAssay AID248 (DTP/NCI, 2004).
Values joined by “and” are separate entries in the source; they are usually repeats but may differ in a detail not shown here. Equal values may be shown once. Inconclusive results and toxic doses are left out. Cut-off read from the data, not from the text of the source: active = T/C of 150% or more; inactive = T/C below 125%.

System: L1210 leukemia ip in BDF1 mice, survival T/C
Assay: NCI In Vivo Anticancer Drug Screen. Data for tumor model L1210 Leukemia (intraperitoneal) in B6D2F1 (BDF1) mice
Details: higher = longer survival
Procedure, shortened: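 Transplanted-tumor mice were given test agent; controls received vehicle only. Survival readings from the two groups were divided (treated over control).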

[1] = endpoint: mean survival time, dose: 100.0 mg/kg/injection, schedule: Q01DX009 (ip), vehicle: saline with Tween-80
[2] = endpoint: mean survival time, dose: 200.0 mg/kg/injection, schedule: Q01DX009 (ip), vehicle: saline with Tween-80
[3] = endpoint: mean survival time, dose: 400.0 mg/kg/injection, schedule: Q01DX009 (ip), vehicle: saline with Tween-80
[4] = endpoint: mean survival time, dose: 100.0 mg/kg/injection, schedule: Q04DX002 (ip), vehicle: saline with Tween-80
[5] = endpoint: mean survival time, dose: 200.0 mg/kg/injection, schedule: Q04DX002 (ip), vehicle: saline with Tween-80
[6] = endpoint: mean survival time, dose: 400.0 mg/kg/injection, schedule: Q04DX002 (ip), vehicle: saline with Tween-80

Measured: T/C

C[C@]12CC[C@H](O)C[C@H]1CC[C@@H]1[C@@H]2CC[C@]2(C)[C@@H](C3=CC(=O)OC3)CC[C@]12O
inactive: endpoint: mean survival time, dose: 50.0 mg/kg/injection, schedule: Q01DX001 (ip), vehicle: carboxymethylcellulose (CMC) 101 % of control | endpoint: median survival time, dose: 2.0 mg/kg/injection, schedule: Q01DX005 (ip), vehicle: water 98 % of control | endpoint: median survival time, dose: 4.0 mg/kg/injection, schedule: Q01DX005 (ip), vehicle: water 98 % of control | endpoint: median survival time, dose: 8.0 mg/kg/injection, schedule: Q01DX005 (ip), vehicle: water 103 % of control

CCCCCCCOc1ccc(C2=C(c3ccccc3)C(=O)C(c3ccccc3)=C2c2ccccc2)cc1
inactive: endpoint: mean survival time, dose: 100.0 mg/kg/injection, schedule: Q01DX001 (ip), vehicle: carboxymethylcellulose (CMC) 100 % of control | endpoint: mean survival time, dose: 200.0 mg/kg/injection, schedule: Q01DX001 (ip), vehicle: carboxymethylcellulose (CMC) 100 % of control | endpoint: mean survival time, dose: 400.0 mg/kg/injection, schedule: Q01DX001 (ip), vehicle: carboxymethylcellulose (CMC) 94 % of control

CC(=O)O[C@]1(C(C)=O)CC[C@H]2[C@@H]3C[C@H](F)C4=CC(=O)CC[C@]4(C)[C@H]3CC[C@@]21C
inactive: endpoint: mean survival time, dose: 100.0 mg/kg/injection, schedule: Q01DX009 (ip), vehicle: Klucel (hydroxypropylcellulose) (HPC) 98 % of control | endpoint: mean survival time, dose: 100.0 mg/kg/injection, schedule: Q04DX003 (ip), vehicle: other 93 % of control | endpoint: mean survival time, dose: 200.0 mg/kg/injection, schedule: Q01DX009 (ip), vehicle: Klucel (hydroxypropylcellulose) (HPC) 97 % of control | endpoint: mean survival time, dose: 200.0 mg/kg/injection, schedule: Q04DX003 (ip), vehicle: other 98 % of control | endpoint: mean survival time, dose: 400.0 mg/kg/injection, schedule: Q01DX009 (ip), vehicle: Klucel (hydroxypropylcellulose) (HPC) 101 % of control | endpoint: mean survival time, dose: 400.0 mg/kg/injection, schedule: Q04DX003 (ip), vehicle: other 100 % of control

CCCCN(CC)CCNc1cc(C)nc(/N=C(\N)Nc2ccc(Cl)c(Cl)c2)n1
inactive: endpoint: mean survival time, dose: 18.75 mg/kg/injection, schedule: Q01DX009 (ip), vehicle: Klucel (hydroxypropylcellulose) (HPC) 102 % of control | endpoint: mean survival time, dose: 37.5 mg/kg/injection, schedule: Q01DX009 (ip), vehicle: Klucel (hydroxypropylcellulose) (HPC) 88 % of control

COc1ccc(/C=C2\N=C(c3cc(OC)c(OC)c(OC)c3)OC2=O)cc1Br
inactive: [1] 91 % of control | [2] 91 % of control | [3] 102 % of control

CC(C)(C)c1ccc(C(c2ccc(C(C)(C)C)cc2)C(Cl)(Cl)Cl)cc1
inactive: [1] 88 % of control | endpoint: mean survival time, dose: 100.0 mg/kg/injection, schedule: Q04DX003 (ip), vehicle: saline sonified 98 % of control | [2] 94 % of control | endpoint: mean survival time, dose: 200.0 mg/kg/injection, schedule: Q04DX003 (ip), vehicle: saline sonified 95 % of control | [3] 92 % of control | endpoint: mean survival time, dose: 400.0 mg/kg/injection, schedule: Q04DX003 (ip), vehicle: saline sonified 97 % of control

Nc1cc(C(F)(F)F)ccc1Cl
inactive: endpoint: mean survival time, dose: 100.0 mg/kg/injection, schedule: Q04DX003 (ip), vehicle: alcohol 100 % of control | endpoint: mean survival time, dose: 200.0 mg/kg/injection, schedule: Q04DX003 (ip), vehicle: alcohol 96 % of control | endpoint: mean survival time, dose: 400.0 mg/kg/injection, schedule: Q04DX003 (ip), vehicle: alcohol 97 % of control

Cc1ccc2cccc([N+](=O)[O-])c2n1
inactive: endpoint: mean survival time, dose: 12.5 mg/kg/injection, schedule: Q01DX009 (ip), vehicle: saline with Tween-80 93 % of control | endpoint: mean survival time, dose: 25.0 mg/kg/injection, schedule: Q01DX009 (ip), vehicle: saline with Tween-80 93 % of control | endpoint: mean survival time, dose: 25.0 mg/kg/injection, schedule: Q04DX003 (ip), vehicle: saline with Tween-80 101 % of control | endpoint: mean survival time, dose: 50.0 mg/kg/injection, schedule: Q01DX009 (ip), vehicle: saline with Tween-80 103 % of control | endpoint: mean survival time, dose: 50.0 mg/kg/injection, schedule: Q04DX003 (ip), vehicle: saline with Tween-80 95 % of control | endpoint: mean survival time, dose: 100.0 mg/kg/injection, schedule: Q04DX003 (ip), vehicle: saline with Tween-80 105 % of control and 106 % of control | endpoint: mean survival time, dose: 200.0 mg/kg/injection, schedule: Q04DX003 (ip), vehicle: saline with Tween-80 106 % of control

CCOC(=O)/C=C(/C)N
inactive: [4] 95 % of control | [5] 91 % of control | [6] 95 % of control

O=C1NC2(CCCCCC2)C(=O)N1CN1CCOCC1
inactive: endpoint: mean survival time, dose: 100.0 mg/kg/injection, schedule: Q01DX001 (ip), vehicle: Klucel (hydroxypropylcellulose) (HPC) 98 % of control | endpoint: mean survival time, dose: 200.0 mg/kg/injection, schedule: Q01DX001 (ip), vehicle: Klucel (hydroxypropylcellulose) (HPC) 101 % of control | endpoint: mean survival time, dose: 400.0 mg/kg/injection, schedule: Q01DX001 (ip), vehicle: Klucel (hydroxypropylcellulose) (HPC) 104 % of control

ClC1C2CC3C1C3C2C(Cl)(Cl)Cl (centres undefined)
inactive: endpoint: mean survival time, dose: 100.0 mg/kg/injection, schedule: Q04DX002 (ip), vehicle: Klucel (hydroxypropylcellulose) (HPC) 103 % of control | endpoint: mean survival time, dose: 200.0 mg/kg/injection, schedule: Q04DX002 (ip), vehicle: Klucel (hydroxypropylcellulose) (HPC) 100 % of control | endpoint: mean survival time, dose: 400.0 mg/kg/injection, schedule: Q04DX002 (ip), vehicle: Klucel (hydroxypropylcellulose) (HPC) 90 % of control

CCCCCCCCCCC[CH2][Sn]([Cl])([CH2]CCCCCCCCCCC)[CH2]CCCCCCCCCCC
inactive: [4] 96 % of control | [5] 96 % of control | [6] 93 % of control

S=c1nc[nH]c2ncccc12
inactive: endpoint: mean survival time, dose: 100.0 mg/kg/injection, schedule: Q04DX003 (ip), vehicle: Klucel (hydroxypropylcellulose) (HPC) 104 % of control | endpoint: mean survival time, dose: 200.0 mg/kg/injection, schedule: Q04DX003 (ip), vehicle: Klucel (hydroxypropylcellulose) (HPC) 100 % of control | endpoint: mean survival time, dose: 400.0 mg/kg/injection, schedule: Q04DX003 (ip), vehicle: Klucel (hydroxypropylcellulose) (HPC) 97 % of control

CC1CCC2C(C)C3C(CC4C5CC=C6CC(OC7OC(CO)C(O)C(OC8OC(CO)C(O)C(O)C8O)C7OC7OC(C)C(O)C(O)C7O)CCC6(C)C5CCC43C)N2C1 (centres undefined)
inactive: endpoint: mean survival time, dose: 12.5 mg/kg/injection, schedule: Q01DX015 (sc), vehicle: steriod suspending solution 101 % of control | endpoint: mean survival time, dose: 25.0 mg/kg/injection, schedule: Q01DX015 (sc), vehicle: steriod suspending solution 98 % of control | endpoint: mean survival time, dose: 50.0 mg/kg/injection, schedule: Q01DX015 (sc), vehicle: steriod suspending solution 95 % of control | endpoint: mean survival time, dose: 100.0 mg/kg/injection, schedule: Q01DX001 (sc), vehicle: steriod suspending solution 100 % of control | endpoint: mean survival time, dose: 100.0 mg/kg/injection, schedule: Q01DX015 (sc), vehicle: steriod suspending solution 101 % of control | endpoint: mean survival time, dose: 200.0 mg/kg/injection, schedule: Q01DX001 (sc), vehicle: steriod suspending solution 105 % of control | endpoint: mean survival time, dose: 400.0 mg/kg/injection, schedule: Q01DX001 (sc), vehicle: steriod suspending solution 103 % of control

CCCCCCCC[Si](C)(C)C
inactive: endpoint: mean survival time, dose: 100.0 mg/kg/injection, schedule: Q01DX001 (ip), vehicle: saline 100 % of control | endpoint: mean survival time, dose: 200.0 mg/kg/injection, schedule: Q01DX001 (ip), vehicle: saline 97 % of control | endpoint: mean survival time, dose: 400.0 mg/kg/injection, schedule: Q01DX001 (ip), vehicle: saline 115 % of control

C=CC[N+](CC=C)(CC=C)CC[N+](CC=C)(CC=C)CC=C
inactive: endpoint: mean survival time, dose: 6.25 mg/kg/injection, schedule: Q01DX009 (ip), vehicle: water 109 % of control | endpoint: mean survival time, dose: 12.5 mg/kg/injection, schedule: Q01DX009 (ip), vehicle: water 111 % of control | endpoint: mean survival time, dose: 25.0 mg/kg/injection, schedule: Q01DX009 (ip), vehicle: water 96 % of control and 90 % of control | endpoint: mean survival time, dose: 50.0 mg/kg/injection, schedule: Q01DX009 (ip), vehicle: water 106 % of control and 87 % of control and 89 % of control | endpoint: mean survival time, dose: 100.0 mg/kg/injection, schedule: Q01DX009 (ip), vehicle: water 100 % of control

O=[N+]([O-])c1ccc(OCc2ccc(S(=O)(=O)F)cc2Cl)c(Cl)c1
inactive: endpoint: mean survival time, dose: 100.0 mg/kg/injection, schedule: Q04DX003 (ip), vehicle: gum acacia 98 % of control | endpoint: mean survival time, dose: 200.0 mg/kg/injection, schedule: Q04DX003 (ip), vehicle: gum acacia 95 % of control | endpoint: mean survival time, dose: 400.0 mg/kg/injection, schedule: Q04DX003 (ip), vehicle: gum acacia 97 % of control

CS(=O)(=O)OCCN(CCOS(C)(=O)=O)c1ccc(C=Nc2cccc(Cl)c2)cc1
inactive: endpoint: mean survival time, dose: 1.25 mg/kg/injection, schedule: Q04DX003 (ip), vehicle: Klucel (hydroxypropylcellulose) (HPC) 107 % of control | endpoint: mean survival time, dose: 5.0 mg/kg/injection, schedule: Q04DX003 (ip), vehicle: Klucel (hydroxypropylcellulose) (HPC) 107 % of control
